# Measurements as given in US20060128718A1, “Tetrahydropyridazine derivatives having a pesticidal effect” (priority 2002, published 2006).
# Where two headings read alike, the source gives them in different places.
# Legend:
# [1] = logP determination by HPLC on reversed phase column (C 18), EEC directive 79/831; assay type: physicochemical; conditions: reversed phase HPLC column (C 18)
# Procedure: Determine the logP values given in the table as specified in EEC directive 79/831 ex V.A8 using HPLC (high performance liquid chromatography) in a reversed e column (C 18). Temperature: 43° C.
# (a) eluents for determination in the acid range: 0.1% aqueous phosphoric acid, acetonitrile, linear gradient of 10% acetonitrile to 90% acetonitrile—corresponding measurement results are marked with an a) in Table 1.
# (b) eluents for determination in the neutral range: 0.01-molar aqueous phosphate buffer solution, acetonitrile, linear gradient of 10% acetonitrile to 90% acetonitrile—corresponding measurement results are marked with a b) [sic] in Table 1.
# Calibration is done using unbranched alkane-2-ones (with 3 to 16 carbon atoms), whose logP values are known (determination of the logP values using the retention times via linear interpolation between two sequential ketones).
# [2] = system: Heliothis armigera larvae; assay: Heliothis armigera test (soybean sprouts dipped, larvae); assay type: in vivo
# Text: Heliothis armigera Test To prepare one of the appropriate active ingredient preparations, mix 1 part by weight of the active ingredient with the indicated amount of solvent and emulsifier and dilute the concentrate with emulsifier-containing water to the desired concentration. Treat soybean sprouts (Glycine max) by dipping into the active ingredient preparation of the desired concentration and infesting with Heliothis armigera larvae while the leaves are still damp. After the desired time, determine the death rate in %. For these purposes 100% means that all the larvae on the leaves were killed; 0% means that no larvae were killed.
# [3] = system: larvae of the diamondback moth (Plutella xylostella); assay: Plutella test (cabbage leaves dipped); assay type: in vivo
# Text: (§1) Plutella Test To prepare one of the appropriate active ingredient preparations, mix 1 part by weight of the active ingredient with the indicated amount of solvent and emulsifier and dilute the concentrate with emulsifier-containing water to the desired concentration. Treat cabbage leaves (Brassica oleracea) by dipping into the active ingredient preparation of the desired concentration and infesting with larvae of the diamondback moth (Plutella xylostella) while the leaves are still damp. After the desired time, determine the death rate in %. For these purposes 100% means that all the larvae on the leaves were killed; 0% means that no larvae were killed.
# [4] = system: larvae of the fall armyworm (Spodoptera frugiperda); assay: Spodoptera frugiperda test (cabbage leaves dipped); assay type: in vivo
# Text: as §1, with “Spodoptera frugiperda” for “Plutella”, “infesting them” for “infesting”, “fall armyworm (Spodoptera frugiperda)” for “diamondback moth (Plutella xylostella)”
# [5] = system: larvae of the beet armyworm (Spodoptera exigua); assay: Spodotera exigua test (cabbage leaves dipped); assay type: in vivo
# Text: as §1, with “Spodotera exigua” for “Plutella”, “infesting them” for “infesting”, “beet armyworm (Spodoptera exigua)” for “diamondback moth (Plutella xylostella)”
# [6] = system: larvae of the mustard beetle (Phaedon cochleariae); assay: Phaedon larvae test (cabbage leaves dipped); assay type: in vivo
# Text: as §1, with “Phaedon Larvae Test To” for “Plutella Test To”, “of the mustard beetle (Phaedon cochleariae) while the” for “of the diamondback moth (Plutella xylostella) while the”, “%. For this purpose 100% means” for “%. For these purposes 100% means”, “all the beetle larvae on” for “all the larvae on”, “that no beetle larvae were” for “that no larvae were”
# [7] = 500 ppm active ingredient, after 7d, cabbage leaves
"chromatographic logP ([1]; pH 2, pH2)","chromatographic logP ([1]; pH 2.3, read-out: logp (pH: 2.3))",SMILES,"Death rate in % after 7d ([2]; 500 ppm active ingredient, after 7d, soybean sprouts) [%]",efficacy (in words) ([2]; Heliothis armigera test),"Death rate in % after 7d [3, 7] [%]",efficacy (in words) ([3]; Plutella test),"Death rate in % after 7d [4, 7] [%]",efficacy (in words) ([4]; Spodoptera frugiperda test),"Death rate in % after 7d [5, 7] [%]",efficacy (in words) ([5]; Spodotera exigua test),"Death rate in % after 7d [6, 7] [%]",efficacy (in words) ([6]; Phaedon larvae test)
3.09,–,"N#Cc1cccc(C(=O)C(Br)CCCl)c1 (stereo not drawn) [Example (X-1), 3′-cyano-2-bromo-4-chlorobutyrophenone]",–,–,–,–,–,–,–,–,–,–
–,4.22,"N#CCN(C(=O)N1CCC(n2cc(Cl)cn2)C(c2cccc(C(F)(F)F)c2)=N1)c1ccc(OC(F)(F)F)cc1 (stereo not drawn) [Example 1, N-cyanomethyl-4-(4-chloropyrazole-1-yl)-1-(4-trifluoromethoxy-phenylamino)-3-(trifluoromethyl-phenyl)-carbonyl-1,4,5,6-tetrahydropyridazine]",100,good efficacy,100,good efficacy,100,good efficacy,100,good efficacy,100,good efficacy
